Experimental data: the supplement of paper PMC10307832

Legend:
Test in all cases: relative viability (nuclei count vs DMSO), 5 days (fraction); higher = more cells survive
AZ505 + Bortezomib = compound: C1CCC(CC1)N(CCNCCC2=C3C(=C(C=C2)O)NC(=O)CO3)C(=O)CCNCCC4=CC(=C(C=C4)Cl)Cl [AZ505] + CC(C)C[C@H](NC(=O)[C@H](Cc1ccccc1)NC(=O)c1cnccn1)B(O)O [Bortezomib] (partner 0.002 µM)
Method in brief: (§1)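 After 5 days of treatment, lung cancer cells in 1536-well plates were fixed and stained in a single step (final 0.05% Triton X-100, 1% formaldehyde, 1 ug/ml Hoechst) and their nuclei counted on 4× images. Treatment had been applied by pin tool the day after seeding as one drug alone or as a fixed anchor-drug dose with five library-drug doses (not always all listed) in √10 steps. Relative viability is the nuclei count of treated wells divided by that of vehicle wells, and values are medians of duplicate plates.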

AZ505 + Decitabine = compound: C1CCC(CC1)N(CCNCCC2=C3C(=C(C=C2)O)NC(=O)CO3)C(=O)CCNCCC4=CC(=C(C=C4)Cl)Cl [AZ505] + Nc1ncn([C@H]2C[C@H](O)[C@@H](CO)O2)c(=O)n1 [Decitabine] (partner 2 µM)
Method in brief: as §1

Dactolisib + Luminespib = compound: Cn1c(=O)n(-c2ccc(C(C)(C)C#N)cc2)c2c3cc(-c4cnc5ccccc5c4)ccc3ncc21 [Dactolisib] + CCNC(=O)c1noc(-c2cc(C(C)C)c(O)cc2O)c1-c1ccc(CN2CCOCC2)cc1 [Luminespib] (partner 0.01 µM)
Method in brief: as §1

Dactolisib + Dasatinib = compound: Cn1c(=O)n(-c2ccc(C(C)(C)C#N)cc2)c2c3cc(-c4cnc5ccccc5c4)ccc3ncc21 [Dactolisib] + Cc1nc(Nc2ncc(C(=O)Nc3c(C)cccc3Cl)s2)cc(N2CCN(CCO)CC2)n1 [Dasatinib] (partner 0.075 µM)
Method in brief: as §1

Cell Line	relative viability (AZ505 + Bortezomib; first compound 0.08 µM)	relative viability (AZ505 + Bortezomib; first compound 0.253 µM)	relative viability (AZ505 + Bortezomib; first compound 0.8 µM)	relative viability (AZ505 + Bortezomib; first compound 2.53 µM)	relative viability (AZ505 + Bortezomib; first compound 8 µM)	relative viability (AZ505 + Decitabine; first compound 0.08 µM)	relative viability (AZ505 + Decitabine; first compound 0.253 µM)	relative viability (AZ505 + Decitabine; first compound 0.8 µM)	relative viability (AZ505 + Decitabine; first compound 2.53 µM)	relative viability (AZ505 + Decitabine; first compound 8 µM)	relative viability (Dactolisib + Luminespib; first compound 0.002 µM)	relative viability (Dactolisib + Luminespib; first compound 0.006325 µM)	relative viability (Dactolisib + Luminespib; first compound 0.02 µM)	relative viability (Dactolisib + Luminespib; first compound 0.06325 µM)	relative viability (Dactolisib + Luminespib; first compound 0.2 µM)	relative viability (Dactolisib + Dasatinib; first compound 0.002 µM)	relative viability (Dactolisib + Dasatinib; first compound 0.006325 µM)	relative viability (Dactolisib + Dasatinib; first compound 0.02 µM)	relative viability (Dactolisib + Dasatinib; first compound 0.06325 µM)	relative viability (Dactolisib + Dasatinib; first compound 0.2 µM)
LOU-NH91	0.46	0.508	0.536	0.527	0.453	0.783	0.818	0.781	0.801	0.805	0.378	0.295	0.351	0.316	0.317	0.533	0.591	0.504	0.438	0.351
LU99A	1.02	1.08	1.05	1.18	1.18	0.841	0.921	0.802	–	0.87	0.257	0.228	0.29	0.202	0.192	0.621	0.449	0.403	0.225	0.205
LXF-289	0.875	–	1.02	0.975	1.02	0.355	0.39	0.396	0.347	0.386	0.698	0.688	0.669	0.478	0.403	0.22	0.21	0.235	0.221	0.121
NCI-H23	0.674	–	1.21	0.956	1.07	0.284	0.326	0.327	0.306	0.311	0.205	0.208	0.222	0.191	0.203	0.852	0.682	0.679	0.325	0.302
NCI-H322M	1.29	1.15	1.39	1.22	1.34	0.679	–	0.67	0.677	0.76	0.36	0.741	0.612	0.4	0.323	0.267	0.256	0.243	0.234	0.235
NCI-H441	0.751	0.636	0.598	0.432	0.621	0.287	0.245	0.232	0.25	0.264	0.446	0.331	0.305	0.285	0.206	0.729	0.477	0.527	0.357	0.205
NCI-H460	0.945	1.24	1.04	1.09	1.11	0.481	0.525	0.461	0.584	0.521	0.0375	0.0432	0.0185	0.0179	0.0243	0.568	0.503	0.448	0.185	0.112
NCI-H520	0.588	0.504	0.496	0.706	0.762	0.458	0.583	0.465	0.519	0.601	0.22	0.184	0.233	0.207	0.204	0.182	0.177	0.149	0.122	0.17
NCI-H596	0.963	0.847	0.756	1.19	1.03	0.976	–	0.974	1.15	0.979	0.925	0.938	0.583	0.347	0.28	0.629	0.539	0.528	0.384	0.319
NCI-H647	1.07	1.13	1	1.19	1.01	0.356	0.451	0.372	0.373	0.379	0.153	0.149	0.109	0.0951	0.0891	0.164	0.191	0.143	0.0579	0.068
NCI-H650	0.607	0.793	0.818	1.02	0.775	0.311	0.343	0.301	0.316	0.288	0.779	0.778	0.787	0.443	0.369	0.539	0.432	0.449	0.314	0.305
NCI-H661	0.798	1.01	0.716	0.787	0.732	0.54	0.575	0.522	0.575	0.582	0.929	0.99	0.866	0.391	0.496	0.562	0.744	0.483	0.296	0.286
NCI-H727	0.728	0.708	0.767	0.747	0.934	0.829	0.693	0.812	0.849	0.987	0.417	0.419	0.351	0.436	0.447	0.384	0.445	0.461	0.3	0.257
NCI-H838	0.805	0.609	0.761	0.564	0.884	0.444	0.475	0.461	0.469	0.506	0.285	0.377	0.317	0.174	0.159	0.261	0.259	0.247	0.248	0.224
NCI-H1355	1.13	1.19	1.16	1.25	1.16	0.345	0.366	0.37	0.379	0.351	0.862	0.705	0.529	0.276	0.186	0.806	0.743	0.689	0.409	0.218
NCI-H1437	0.551	0.453	0.49	0.405	0.743	0.574	0.571	0.62	0.625	0.555	1.15	1.18	1.21	1.14	0.59	0.378	0.426	0.378	0.358	0.227
